Laboratory results published in ChEMBL document CHEMBL3297644, “Discovery of a 4-aryloxy-1H-pyrrolo[3,2-c]pyridine and a 1-aryloxyisoquinoline series of TRPA1 antagonists” (Bioorg Med Chem Lett, 2014).
In brackets after ≈: the same amount, converted by molar mass. Blank lines part the entries; values can stand above or below the molecule they belong to.

Key:
[1] = target: Transient receptor potential cation channel subfamily A member 1 (Homo sapiens, UniProt O75762); test: Antagonist activity at human TRPA1 expressed in HEK293-TREx cells assessed as intracellular level after 48 of 72 hrs by Fluo-4 NW staining-based fluorescence analysis; format: cell-based
[2] = Apparent permeability across apical to basolateral side in human Caco2 cells at 10 uM at pH 7.4 by Transwell assay; format: ADME, cell-based; conditions: Caco-2, pH 7.4
Cytochrome P450 2C19 = Cytochrome P450 2C19 (Homo sapiens, UniProt P33261); test: Inhibition of CYP2C19 in human liver microsomes by LC-MS/MS/competitive screening assay; format: ADME
Cytochrome P450 2C9 = Cytochrome P450 2C9 (Homo sapiens, UniProt P11712); test: Inhibition of CYP2C9 in human liver microsomes by LC-MS/MS/competitive screening assay; format: ADME
Cytochrome P450 3A4 = Cytochrome P450 3A4 (Homo sapiens, UniProt P08684); test: Inhibition of CYP3A4 in human liver microsomes by LC-MS/MS/competitive screening assay; format: ADME
Cytochrome P450 1A2 [3] = target: T1, Cytochrome P450 1A2 (Homo sapiens, UniProt P05177); test: Inhibition of CYP1A2 in human liver microsomes by LC-MS/MS/competitive screening assay; format: ADME
T1 sequence (P05177 whole entry): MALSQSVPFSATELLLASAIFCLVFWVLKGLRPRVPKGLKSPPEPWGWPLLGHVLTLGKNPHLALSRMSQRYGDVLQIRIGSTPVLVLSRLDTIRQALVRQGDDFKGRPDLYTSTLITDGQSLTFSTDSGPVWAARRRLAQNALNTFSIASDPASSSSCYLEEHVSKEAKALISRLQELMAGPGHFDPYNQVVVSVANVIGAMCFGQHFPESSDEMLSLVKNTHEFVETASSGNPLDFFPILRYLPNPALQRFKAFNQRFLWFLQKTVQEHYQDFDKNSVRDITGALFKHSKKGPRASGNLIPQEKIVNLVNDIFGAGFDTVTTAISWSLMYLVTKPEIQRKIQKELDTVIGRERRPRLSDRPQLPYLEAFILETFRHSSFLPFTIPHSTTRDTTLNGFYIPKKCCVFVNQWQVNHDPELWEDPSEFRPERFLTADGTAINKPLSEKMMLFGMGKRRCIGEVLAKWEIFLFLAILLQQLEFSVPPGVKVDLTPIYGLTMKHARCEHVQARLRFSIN

Cytochrome P450 2D6 = Cytochrome P450 2D6 (Homo sapiens, UniProt P10635); test: Inhibition of CYP2D6 in human liver microsomes by LC-MS/MS/competitive screening assay; format: ADME
[4] = Intrinsic clearance in human liver microsomes at 1 uM in presence of NADPH; format: ADME; conditions: read-out: CLH
[5] = Thermodynamic solubility of the compound in buffer at pH 7.4 by HPLC/UV detection; format: physicochemical; conditions: read-out: Therm_solubility
[6] = target: Transient receptor potential cation channel subfamily A member 1 (Rattus norvegicus, UniProt Q6RI86); test: Antagonist activity at rat TRPA1 expressed in HEK293-TREx cells assessed as intracellular level after 48 of 72 hrs by Fluo-4 NW staining-based fluorescence analysis; format: cell-based
Cytochrome P450 1A2 [7] = target: T1, Cytochrome P450 1A2; test: Time dependent inhibition of CYP1A2 in human liver microsomes assessed as shift at 10 uM; format: ADME; conditions: pooled result: one value given for 4 cell lines, strains, targets or settings
[8] = target: Transient receptor potential cation channel subfamily V member 1 (Homo sapiens, UniProt Q8NER1); test: Inhibition of human TRPV1
[9] = Chemical stability in buffer solution assessed as compound remaining at pH 14 at 70 degC after 24 hrs by HPLC/UV detection; format: physicochemical; conditions: read-out: Stability
[10] = Chemical stability in buffer solution assessed as compound remaining at pH 7 at 70 degC after 24 hrs by HPLC/UV detection; format: physicochemical; conditions: read-out: Stability
[11] = Chemical stability in buffer solution assessed as compound remaining at pH 1 at 70 degC after 24 hrs by HPLC/UV detection; format: physicochemical; conditions: read-out: Stability

Cytochrome P450 2D6, sequence (P10635 whole entry): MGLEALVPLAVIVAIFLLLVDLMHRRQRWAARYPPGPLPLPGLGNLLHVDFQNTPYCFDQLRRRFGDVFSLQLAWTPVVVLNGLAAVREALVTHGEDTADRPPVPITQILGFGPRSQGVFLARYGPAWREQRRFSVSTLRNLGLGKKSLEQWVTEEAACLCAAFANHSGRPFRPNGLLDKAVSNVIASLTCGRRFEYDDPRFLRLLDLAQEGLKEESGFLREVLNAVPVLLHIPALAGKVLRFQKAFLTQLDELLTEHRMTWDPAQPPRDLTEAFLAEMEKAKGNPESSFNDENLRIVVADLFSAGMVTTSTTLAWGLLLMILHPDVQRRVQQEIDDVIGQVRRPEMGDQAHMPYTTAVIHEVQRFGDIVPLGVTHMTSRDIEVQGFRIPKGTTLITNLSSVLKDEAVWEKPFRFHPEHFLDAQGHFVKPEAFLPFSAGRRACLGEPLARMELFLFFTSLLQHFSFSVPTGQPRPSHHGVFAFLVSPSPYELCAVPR
Cytochrome P450 2C19, sequence (P33261 whole entry): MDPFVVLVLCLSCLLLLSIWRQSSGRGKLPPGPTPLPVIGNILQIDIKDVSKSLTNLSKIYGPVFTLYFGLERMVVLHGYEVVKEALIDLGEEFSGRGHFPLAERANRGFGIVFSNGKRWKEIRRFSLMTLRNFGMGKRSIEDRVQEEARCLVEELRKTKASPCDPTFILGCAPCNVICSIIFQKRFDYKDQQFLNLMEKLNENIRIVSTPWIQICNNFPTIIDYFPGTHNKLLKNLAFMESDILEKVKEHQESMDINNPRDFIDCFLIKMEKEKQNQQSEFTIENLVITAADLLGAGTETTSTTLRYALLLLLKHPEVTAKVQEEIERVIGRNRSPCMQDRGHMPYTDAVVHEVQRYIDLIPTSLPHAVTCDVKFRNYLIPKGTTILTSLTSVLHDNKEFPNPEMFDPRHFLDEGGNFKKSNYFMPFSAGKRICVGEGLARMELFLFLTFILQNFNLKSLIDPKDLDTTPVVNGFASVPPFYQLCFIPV
Transient receptor potential cation channel subfamily A member 1 (Rattus norvegicus, UniProt Q6RI86), sequence (Q6RI86 whole entry): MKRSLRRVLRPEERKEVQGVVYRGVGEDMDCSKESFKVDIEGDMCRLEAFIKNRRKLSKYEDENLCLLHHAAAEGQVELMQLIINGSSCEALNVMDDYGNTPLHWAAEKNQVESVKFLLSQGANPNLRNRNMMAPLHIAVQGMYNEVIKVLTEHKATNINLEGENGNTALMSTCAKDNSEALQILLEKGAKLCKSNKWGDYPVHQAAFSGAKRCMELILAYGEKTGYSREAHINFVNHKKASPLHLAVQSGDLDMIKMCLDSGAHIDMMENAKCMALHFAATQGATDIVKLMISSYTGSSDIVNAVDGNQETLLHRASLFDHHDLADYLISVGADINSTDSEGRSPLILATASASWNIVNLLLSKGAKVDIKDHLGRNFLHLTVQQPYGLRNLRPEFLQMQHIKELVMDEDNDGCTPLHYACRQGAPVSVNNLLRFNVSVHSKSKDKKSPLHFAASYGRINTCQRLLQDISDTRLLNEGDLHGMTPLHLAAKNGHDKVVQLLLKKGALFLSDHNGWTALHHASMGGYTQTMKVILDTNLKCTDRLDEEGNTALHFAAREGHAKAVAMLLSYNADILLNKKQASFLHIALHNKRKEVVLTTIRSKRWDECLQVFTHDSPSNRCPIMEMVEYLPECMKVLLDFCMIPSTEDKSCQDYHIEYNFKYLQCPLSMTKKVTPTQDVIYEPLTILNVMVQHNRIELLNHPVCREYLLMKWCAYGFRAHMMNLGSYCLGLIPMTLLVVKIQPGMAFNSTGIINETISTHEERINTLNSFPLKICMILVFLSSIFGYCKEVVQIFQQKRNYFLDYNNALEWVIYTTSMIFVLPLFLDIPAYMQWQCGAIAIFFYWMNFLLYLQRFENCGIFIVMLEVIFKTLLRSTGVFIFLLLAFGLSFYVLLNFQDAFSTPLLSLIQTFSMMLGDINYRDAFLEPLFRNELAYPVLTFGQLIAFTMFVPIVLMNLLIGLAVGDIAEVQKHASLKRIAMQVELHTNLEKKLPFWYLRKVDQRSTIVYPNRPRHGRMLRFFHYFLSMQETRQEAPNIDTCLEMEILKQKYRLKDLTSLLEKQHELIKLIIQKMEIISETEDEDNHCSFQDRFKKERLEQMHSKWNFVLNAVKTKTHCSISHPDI
Transient receptor potential cation channel subfamily A member 1 (Homo sapiens, UniProt O75762), sequence (O75762 whole entry): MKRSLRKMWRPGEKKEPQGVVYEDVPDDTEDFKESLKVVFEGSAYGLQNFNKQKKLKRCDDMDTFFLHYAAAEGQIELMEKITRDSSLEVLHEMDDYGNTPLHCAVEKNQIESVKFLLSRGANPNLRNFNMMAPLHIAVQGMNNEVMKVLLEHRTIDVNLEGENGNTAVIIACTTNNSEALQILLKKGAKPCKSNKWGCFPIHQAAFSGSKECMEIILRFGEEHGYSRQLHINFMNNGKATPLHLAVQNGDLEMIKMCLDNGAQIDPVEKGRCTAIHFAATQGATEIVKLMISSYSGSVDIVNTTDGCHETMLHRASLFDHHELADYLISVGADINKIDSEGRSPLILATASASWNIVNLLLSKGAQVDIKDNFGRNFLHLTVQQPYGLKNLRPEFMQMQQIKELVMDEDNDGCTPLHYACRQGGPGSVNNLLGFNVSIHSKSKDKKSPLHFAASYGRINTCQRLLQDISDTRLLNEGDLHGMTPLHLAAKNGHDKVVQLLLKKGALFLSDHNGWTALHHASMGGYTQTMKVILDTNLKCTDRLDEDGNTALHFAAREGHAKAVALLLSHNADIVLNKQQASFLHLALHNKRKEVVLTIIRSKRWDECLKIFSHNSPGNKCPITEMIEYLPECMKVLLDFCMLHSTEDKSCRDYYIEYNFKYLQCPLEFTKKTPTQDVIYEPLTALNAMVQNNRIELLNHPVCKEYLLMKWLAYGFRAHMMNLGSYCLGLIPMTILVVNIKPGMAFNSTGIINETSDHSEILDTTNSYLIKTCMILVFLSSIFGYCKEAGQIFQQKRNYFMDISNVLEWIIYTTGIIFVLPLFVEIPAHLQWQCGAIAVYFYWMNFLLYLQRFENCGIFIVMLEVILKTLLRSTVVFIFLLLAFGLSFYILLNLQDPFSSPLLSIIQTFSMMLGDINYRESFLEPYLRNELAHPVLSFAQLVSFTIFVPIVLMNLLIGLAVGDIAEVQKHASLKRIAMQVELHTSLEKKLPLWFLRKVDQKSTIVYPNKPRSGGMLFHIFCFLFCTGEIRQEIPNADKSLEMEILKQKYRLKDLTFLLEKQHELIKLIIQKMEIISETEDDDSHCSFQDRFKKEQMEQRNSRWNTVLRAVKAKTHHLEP
Cytochrome P450 2C9, sequence (P11712 whole entry): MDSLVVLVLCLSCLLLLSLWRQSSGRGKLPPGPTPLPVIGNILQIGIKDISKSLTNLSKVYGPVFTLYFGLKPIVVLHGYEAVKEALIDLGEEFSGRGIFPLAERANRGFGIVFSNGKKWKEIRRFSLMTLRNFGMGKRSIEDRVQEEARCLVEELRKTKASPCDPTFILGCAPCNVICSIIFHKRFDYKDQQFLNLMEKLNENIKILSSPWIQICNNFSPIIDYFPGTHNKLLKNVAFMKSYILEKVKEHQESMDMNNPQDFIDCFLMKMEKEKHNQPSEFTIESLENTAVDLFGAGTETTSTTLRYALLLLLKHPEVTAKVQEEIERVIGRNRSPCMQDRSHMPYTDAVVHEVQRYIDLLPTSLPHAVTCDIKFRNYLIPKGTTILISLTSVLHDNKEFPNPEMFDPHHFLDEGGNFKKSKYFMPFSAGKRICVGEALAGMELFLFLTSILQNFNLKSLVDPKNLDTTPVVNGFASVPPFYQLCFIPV
Cytochrome P450 3A4, sequence (P08684 whole entry): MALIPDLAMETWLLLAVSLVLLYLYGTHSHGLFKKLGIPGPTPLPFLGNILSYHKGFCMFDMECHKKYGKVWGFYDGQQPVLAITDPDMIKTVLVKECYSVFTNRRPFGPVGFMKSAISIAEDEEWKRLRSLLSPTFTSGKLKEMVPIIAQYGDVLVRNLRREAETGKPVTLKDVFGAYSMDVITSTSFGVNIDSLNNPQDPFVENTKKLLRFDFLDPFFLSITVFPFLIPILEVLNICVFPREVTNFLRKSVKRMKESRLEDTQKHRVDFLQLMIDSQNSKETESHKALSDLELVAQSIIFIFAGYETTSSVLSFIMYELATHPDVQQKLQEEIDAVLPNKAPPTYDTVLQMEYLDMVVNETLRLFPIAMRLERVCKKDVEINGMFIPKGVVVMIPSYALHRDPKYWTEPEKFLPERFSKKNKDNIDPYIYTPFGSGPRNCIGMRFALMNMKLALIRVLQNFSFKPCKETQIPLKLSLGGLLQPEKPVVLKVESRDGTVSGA
Transient receptor potential cation channel subfamily V member 1, sequence (Q8NER1 whole entry): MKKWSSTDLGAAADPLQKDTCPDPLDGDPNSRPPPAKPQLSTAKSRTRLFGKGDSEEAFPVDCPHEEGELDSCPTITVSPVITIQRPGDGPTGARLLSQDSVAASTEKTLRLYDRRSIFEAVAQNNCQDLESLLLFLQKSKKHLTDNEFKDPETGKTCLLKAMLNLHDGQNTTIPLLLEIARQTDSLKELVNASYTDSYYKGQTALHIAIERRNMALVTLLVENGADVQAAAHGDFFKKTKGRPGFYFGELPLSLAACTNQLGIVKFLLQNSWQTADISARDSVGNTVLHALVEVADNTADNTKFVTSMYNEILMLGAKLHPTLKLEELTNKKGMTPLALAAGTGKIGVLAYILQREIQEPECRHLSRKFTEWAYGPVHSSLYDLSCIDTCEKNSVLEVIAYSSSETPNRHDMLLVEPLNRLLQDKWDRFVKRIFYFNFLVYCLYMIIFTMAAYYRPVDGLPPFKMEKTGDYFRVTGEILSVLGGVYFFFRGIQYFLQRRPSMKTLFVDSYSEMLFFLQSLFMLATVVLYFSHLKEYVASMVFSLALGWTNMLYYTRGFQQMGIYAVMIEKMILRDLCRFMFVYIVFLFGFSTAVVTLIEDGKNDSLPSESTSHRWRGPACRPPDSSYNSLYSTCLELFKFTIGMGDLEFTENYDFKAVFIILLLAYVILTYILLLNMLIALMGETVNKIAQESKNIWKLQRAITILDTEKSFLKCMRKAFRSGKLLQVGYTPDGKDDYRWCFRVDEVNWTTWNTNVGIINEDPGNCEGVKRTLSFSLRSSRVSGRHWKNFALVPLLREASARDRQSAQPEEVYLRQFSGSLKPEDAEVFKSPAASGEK

Papp A→B at 10 µM [2]: 12 ×10⁻⁶ cm/s
TDI (Cytochrome P450 1A2 [7]): 31%
IC50 (Cytochrome P450 2C19): > 20000 nM
IC50 (Cytochrome P450 2C9): > 20000 nM
IC50 (Cytochrome P450 3A4): > 20000 nM
IC50 [1]: 310 nM
IC50 (Cytochrome P450 1A2 [3]): > 20000 nM
IC50 (Cytochrome P450 2D6): > 20000 nM
microsomal CLint at 1 µM [4]: 74 µL/min/mg
solubility thermodynamic [5]: 24 µM (≈ 5.48 µg/mL)
IC50 [6]: 1200 nM
Compound: Fc1ccc(Oc2nccc3[nH]ccc23)cc1

IC50 [1]: > 32000 nM
Compound: Cc1ccc(Oc2ncnc3[nH]ccc23)c(C)c1

IC50 [1]: > 32000 nM
Compound: Fc1cccc(Oc2ncnc3[nH]ccc23)c1

IC50 [1]: > 32000 nM
Compound: Fc1ccc(Oc2ncnc3ccccc23)c(F)c1

IC50 [1]: > 32000 nM
Compound: COc1ccc(Oc2ncnc3[nH]ccc23)cc1

IC50 [1]: > 32000 nM
Compound: O=[N+]([O-])c1ccc(Oc2ncnc3[nH]ccc23)cc1

IC50 [1]: > 32000 nM
Compound: Fc1ccc(Oc2ncnc3cc[nH]c23)c(F)c1

IC50 [1]: 710 nM
Compound: Fc1ccc(Oc2ncnc3[nH]ccc23)c(F)c1

IC50 [1]: > 32000 nM
Compound: Fc1ccc(Nc2ncnc3[nH]ccc23)cc1

IC50 [8]: > 10000 nM
Papp A→B at 10 µM [2]: 18 ×10⁻⁶ cm/s
remaining at 24 h [9]: 100%
TDI (Cytochrome P450 1A2 [7]): 44%
remaining at 24 h [10]: 100%
IC50 (Cytochrome P450 2C19): > 20000 nM
remaining at 24 h [11]: 10%
IC50 (Cytochrome P450 2C9): > 20000 nM
IC50 (Cytochrome P450 3A4): > 20000 nM
IC50 [1]: 410 nM
IC50 (Cytochrome P450 1A2 [3]): > 20000 nM
IC50 (Cytochrome P450 2D6): > 20000 nM
microsomal CLint at 1 µM [4]: 24 µL/min/mg
solubility thermodynamic [5]: 33 µM (≈ 7.56 µg/mL)
IC50 [6]: 3000 nM
Compound: Fc1ccc(Oc2ncnc3[nH]ccc23)cc1

IC50 [1]: > 32000 nM
Compound: Fc1ccc(Oc2ccnc3[nH]ccc23)c(F)c1

IC50 [1]: 1200 nM
Compound: Cc1cc2c(Oc3ccc(F)cc3F)ncnc2[nH]1

IC50 [1]: > 32000 nM
Compound: Fc1ccccc1Oc1ncnc2[nH]ccc12

IC50 [1]: > 32000 nM
Compound: Clc1ccc(Oc2ncnc3[nH]ccc23)cc1

IC50 [1]: > 32000 nM
Compound: Fc1ccc(Oc2ncnc3occc23)c(F)c1

IC50 [8]: > 10000 nM
Papp A→B at 10 µM [2]: 33 ×10⁻⁶ cm/s
remaining at 24 h [9]: 100%
TDI (Cytochrome P450 1A2 [7]): 42%
remaining at 24 h [10]: 100%
IC50 (Cytochrome P450 2C19): > 20000 nM
remaining at 24 h [11]: 100%
IC50 (Cytochrome P450 2C9): > 20000 nM
IC50 (Cytochrome P450 3A4): > 20000 nM
IC50 [1]: 320 nM
IC50 (Cytochrome P450 1A2 [3]): > 20000 nM
IC50 (Cytochrome P450 2D6): > 20000 nM
microsomal CLint at 1 µM [4]: 45 µL/min/mg
solubility thermodynamic [5]: 77 µM (≈ 19 µg/mL)
IC50 [6]: 1700 nM
Compound: Fc1ccc(Oc2nccc3[nH]ccc23)c(F)c1

IC50 [1]: > 32000 nM
Compound: N#Cc1ccc(Oc2ncnc3[nH]ccc23)cc1

IC50 [1]: > 32000 nM
Compound: Cc1ccccc1Oc1ncnc2[nH]ccc12

IC50 [1]: > 32000 nM
Compound: Cc1ccc(Oc2ncnc3[nH]ccc23)cc1

IC50 [1]: 2700 nM
Compound: Fc1cccc(Oc2ncnc3[nH]ccc23)c1F

IC50 [1]: 3200 nM
Compound: c1ccc(Oc2ncnc3[nH]ccc23)cc1

IC50 [1]: > 32000 nM
Compound: Fc1ccc(Cc2ncnc3[nH]ccc23)cc1

IC50 [1]: > 32000 nM
Compound: Fc1cc(F)c(Oc2ncnc3[nH]ccc23)c(F)c1

IC50 [1]: 3000 nM
Compound: Fc1ccc(Oc2ncnc3[nH]ccc23)cc1F

Further lines, the molecule ahead of its results:

Compound: Fc1ccc(Oc2nccc3ccccc23)c(F)c1
IC50 [1]: 3100 nM

Compound: COc1cc2ccnc(Oc3ccc(F)cc3)c2cc1OC
Papp A→B at 10 µM [2]: 6 ×10⁻⁶ cm/s
IC50 (Cytochrome P450 2C19): 1900 nM
IC50 (Cytochrome P450 2C9): 1900 nM
IC50 (Cytochrome P450 3A4): 1900 nM
IC50 [1]: 330 nM
IC50 (Cytochrome P450 1A2 [3]): 1900 nM
IC50 (Cytochrome P450 2D6): 1900 nM
microsomal CLint at 1 µM [4]: 110 µL/min/mg
solubility thermodynamic [5]: 8 µM (≈ 2.39 µg/mL)
IC50 [6]: 1800 nM

Compound: Fc1ccc(Oc2ncnc3[nH]cc(I)c23)c(F)c1
IC50 [1]: 2500 nM

Compound: COc1cc2ncnc(Oc3ccc(F)cc3F)c2cc1OC
IC50 [1]: 1200 nM

Compound: Fc1ccc(Oc2cccc3[nH]ccc23)c(F)c1
IC50 [1]: 1100 nM

Compound: Cn1ccc2c(Oc3ccc(F)cc3F)ncnc21
IC50 [1]: > 32000 nM

Compound: COc1ccc2ncnc(Oc3ccc(F)cc3F)c2c1
IC50 [1]: > 32000 nM

Compound: CCc1c[nH]c2ncnc(Oc3ccc(F)cc3F)c12
IC50 [1]: 1600 nM

Compound: COc1ccc2c(Oc3ccc(F)cc3F)ncnc2c1
IC50 [1]: 3000 nM

Compound: COc1cc2ccnc(Oc3ccc(F)cc3F)c2cc1OC
IC50 [1]: 630 nM

Compound: Fc1ccc(Oc2nccc3ccoc23)c(F)c1
IC50 [1]: 1100 nM

Compound: Cc1[nH]c2ncnc(Oc3ccc(F)cc3F)c2c1C
IC50 [1]: 2000 nM

Compound: Fc1ccc(Oc2nccc3occc23)c(F)c1
IC50 [1]: 2200 nM

Compound: COc1ccc2c(Oc3ccc(F)cc3F)nccc2c1
IC50 [1]: 1300 nM

Compound: Cc1c[nH]c2ncnc(Oc3ccc(F)cc3F)c12
IC50 [1]: 650 nM

Compound: Fc1ccc(Oc2ncnc3[nH]cc(Cl)c23)c(F)c1
IC50 [1]: 630 nM

Compound: Fc1ccc(Oc2ncnc3ccoc23)c(F)c1
IC50 [1]: > 32000 nM

Compound: Fc1ccc(Oc2ccncn2)c(F)c1
IC50 [1]: > 32000 nM
